Data published in patent US9938269B2, “Inhibitor compounds of phosphodiesterase type 10A” (ABBVIE INC., priority 2011, dated 2018).
Structures can show the parent of a compound that is named as a salt.

Legend:
in vitro [1] = conditions: human, microsomes, pH 7.4
Procedure: (§1) The test substances were incubated in a concentration of 0.5 μM as follows:
(§2) 0.5 μM test substance are preincubated together with liver microsomes from different species (from rat, human or other species) (0.25 mg of microsomal protein/10 in 0.05 M potassium phosphate buffer of pH 7.4 in microtiter plates at 37° C. for 5 min. The reaction is started by adding NADPH (1 mg/mL). After 0, 5, 10, 15, 20 and 30 min., 50 μl aliquots are removed, and the reaction is immediately stopped and cooled with the same volume of acetonitrile. The samples are frozen until analyzed. The remaining concentration of undegraded test substance is determined by MSMS. The half-life (T½) is determined from the gradient of the signal of test substance/unit time plot, it being possible to calculate the half-life of the test substance, assuming first order kinetics, from the decrease in the concentration of the compound with time. The microsomal clearance (mCl) is calculated from mCl=ln 2/T½/(content of microsomal protein in mg/ml)×1000 [ml/min/mg]

in vitro [2] = conditions: rat, microsomes, pH 7.4
Procedure: as §1, §2

PDE10A (human) = target: T1, PDE10A (human) (Homo sapiens, UniProt Q9Y233); experiment: Measurement of PDE activity (HTRF cAMP kit), human PDE10A; format: biochemical; conditions: PDE enzymatic reaction, substrate 20 nM for PDE10, 60 minutes at 29 C
T1 construct: purchased BPS Bioscience
Summary of the method: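 HTRF detection of cAMP left after hydrolysis, expressed as percent of uninhibited control to derive IC50. Reaction: serially diluted inhibitor mixed with recombinant enzyme, started with 20 nM cAMP, 60 min at 29 °C in Tris-HCl pH 7.5 buffer containing MgCl2 and BSA.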

[3] = tested on: hyperactivity in rats induced by PCP; conditions: cited from earlier work
catalepsy in rats = conditions: cited from earlier work
[4] = after systemic administration; cited from earlier work
[5] = tested on: amphetamine-induced hyperactivity; conditions: rat, in vivo; cited from earlier work
[6] = Determination of the microsomal half-life, human liver microsomes; conditions: human, liver microsomes, pH 7.4
Procedure: as §1, §2

[7] = Determination of the microsomal half-life, rat liver microsomes; conditions: rat, liver microsomes, pH 7.4
Procedure: as §1, §2

T1 sequence (Q9Y233 whole entry): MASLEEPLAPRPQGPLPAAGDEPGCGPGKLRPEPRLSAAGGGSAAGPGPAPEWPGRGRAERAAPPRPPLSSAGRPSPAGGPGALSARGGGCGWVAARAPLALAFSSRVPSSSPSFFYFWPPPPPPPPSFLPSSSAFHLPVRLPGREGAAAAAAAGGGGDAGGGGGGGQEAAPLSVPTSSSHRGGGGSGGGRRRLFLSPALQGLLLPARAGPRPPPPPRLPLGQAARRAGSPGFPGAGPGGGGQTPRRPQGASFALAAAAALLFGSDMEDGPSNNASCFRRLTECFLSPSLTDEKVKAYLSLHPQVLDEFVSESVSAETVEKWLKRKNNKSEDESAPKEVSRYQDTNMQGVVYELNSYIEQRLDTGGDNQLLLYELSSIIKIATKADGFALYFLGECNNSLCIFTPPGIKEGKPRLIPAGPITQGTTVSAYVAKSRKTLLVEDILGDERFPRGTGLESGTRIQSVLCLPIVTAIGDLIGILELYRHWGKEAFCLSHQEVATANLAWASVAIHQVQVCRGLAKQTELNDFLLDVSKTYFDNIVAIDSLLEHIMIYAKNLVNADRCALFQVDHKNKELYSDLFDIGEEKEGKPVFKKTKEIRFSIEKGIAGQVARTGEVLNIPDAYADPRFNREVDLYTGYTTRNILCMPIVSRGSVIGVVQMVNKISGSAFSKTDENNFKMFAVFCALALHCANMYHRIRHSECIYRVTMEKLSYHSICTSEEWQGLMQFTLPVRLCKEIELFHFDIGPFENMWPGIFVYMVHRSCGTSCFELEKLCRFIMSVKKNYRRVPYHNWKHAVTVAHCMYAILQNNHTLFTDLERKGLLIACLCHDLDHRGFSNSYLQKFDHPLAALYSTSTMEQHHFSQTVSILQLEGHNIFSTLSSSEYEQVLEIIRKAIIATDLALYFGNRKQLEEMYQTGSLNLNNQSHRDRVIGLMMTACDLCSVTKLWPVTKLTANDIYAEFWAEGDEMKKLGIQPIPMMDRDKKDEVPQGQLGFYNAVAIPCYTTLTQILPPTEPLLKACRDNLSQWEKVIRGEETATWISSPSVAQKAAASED

| microsomal CLint at 0.5 μM (in vitro [1]) [µL/min/mg] | microsomal CLint at 0.5 μM (in vitro [2]) [µL/min/mg] | IC50 (PDE10A (human)) [nM] | microsomal CLint at 0.5 μM [6] [µL/min/mg] | microsomal CLint at 0.5 μM [7] [µL/min/mg] | Structure (SMILES) | hyperactivity induced by PCP [3] | catalepsy on its own (catalepsy in rats; papaverine alone) | cataleptic effect of the D2 receptor antagonist haloperidol (catalepsy in rats; together with haloperidol) | exposure half-life [4] | reduction of amphetamine-induced hyperactivity [5] |
| --- | --- | --- | --- | --- | --- | --- | --- | --- | --- | --- |
| < 100 | < 100 | 200 to 500 | – | – | O=C1c2c(cccc2N2C3CCC2CNC3)CN1CCc1ccc2ccccc2n1 [Example 103, 7-(3,8-Diaza-bicyclo[3.2.1]oct-8-yl)-2-(2-quinolin-2-yl-ethyl)-2,3-dihydro-isoindol-1-one] | – | – | – | – | – |
| – | – | – | – | – | COc1ccc(Cc2nccc3cc(OC)c(OC)cc23)cc1OC [Papaverine, papaverine] | reduced hyperactivity | did not cause catalepsy on its own | potentiated the cataleptic effect | very short | insignificant |
| – | – | < 100 | < 100 | < 100 | COc1ccc(-c2cccnc2)c2c1CN(CCc1cn3ccccc3n1)C2=O [Example 218, 2-(2-Imidazo[1,2-a]pyridin-2-yl-ethyl)-4-methoxy-7-pyridin-3-yl-2,3-dihydro-isoindol-1-one trifluoroacetate] | – | – | – | – | – |
| – | – | 200 to 500 | 100 to 220 | > 220 | CCOc1ncc(-c2cccc3c2CN(CCc2ccc4ccccc4n2)C3=O)cn1 [Example 343, 4-(2-Ethoxy-pyrimidin-5-yl)-2-(2-quinolin-2-yl-ethyl)-2,3-dihydro-isoindol-1-one] | – | – | – | – | – |
